According to ChEMBL document CHEMBL1201862, “PubChem BioAssay data set” (2004):
The source made the active and inactive calls.

Tests used:
Cytochrome P450 2C9 = Cytochrome P450 2C9 (Homo sapiens, UniProt P11712)
Caspase-3 = molecular target: T1, Caspase-3 (Homo sapiens, UniProt P42574); format: functional;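 note: Dose-response selectivity test against caspase-3 for candidate inhibitors of sentrin-specific proteases (SENPs)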
T1 sequence (P42574 whole entry): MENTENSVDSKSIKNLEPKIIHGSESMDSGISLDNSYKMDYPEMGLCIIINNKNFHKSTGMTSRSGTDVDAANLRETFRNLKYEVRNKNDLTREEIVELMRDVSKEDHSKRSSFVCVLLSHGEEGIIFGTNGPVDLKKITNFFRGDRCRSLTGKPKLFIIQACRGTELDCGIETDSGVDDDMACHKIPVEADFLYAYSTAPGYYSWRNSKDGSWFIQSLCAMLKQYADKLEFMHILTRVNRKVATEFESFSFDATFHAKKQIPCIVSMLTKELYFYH

[1] = molecular target: T2, Sentrin-specific protease 8 (Homo sapiens, UniProt Q96LD8); format: functional;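 note: luminescence read-out of SENP8 inhibition, dose-response confirmation following an ultra-high-throughput screen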
T2 sequence (Q96LD8 whole entry): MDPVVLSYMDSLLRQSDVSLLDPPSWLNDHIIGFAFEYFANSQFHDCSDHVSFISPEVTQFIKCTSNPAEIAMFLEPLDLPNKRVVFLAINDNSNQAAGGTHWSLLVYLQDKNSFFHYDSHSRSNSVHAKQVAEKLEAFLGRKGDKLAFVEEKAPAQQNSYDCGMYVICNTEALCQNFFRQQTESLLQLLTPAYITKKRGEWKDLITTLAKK

[2] = molecular target: T3, Endoribonuclease toxin MazF (Escherichia coli K-12, UniProt P0AE70); test: activation of MazEF endoribonuclease cleavage – biochemical, fluorescence, single-stranded RNA substrate, uHTS hits, dose response (AID 588481); format: functional
T3 sequence (P0AE70 whole entry): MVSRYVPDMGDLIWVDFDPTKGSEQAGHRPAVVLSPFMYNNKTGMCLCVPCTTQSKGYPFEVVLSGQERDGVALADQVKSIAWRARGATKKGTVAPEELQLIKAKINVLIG

[3] = molecular target: Acetyl-CoA acetyltransferase/HMG-CoA reductase (Enterococcus faecalis, UniProt Q9FD70); test: class II HMG-CoA reductase inhibition potency – biochemical, Enterococcus faecalis, confirmation (AID 1233); format: functional
[4] = molecular target: T3, Endoribonuclease toxin MazF; test: substrate-only fluorescence increase artefacts – biochemical, single-stranded RNase substrate, counter-screen for MazEF activator project, dose response (AID 588502); format: functional
[5] = molecular target: Glucose-6-phosphate 1-dehydrogenase (Homo sapiens, UniProt P11413); test: inhibition of Homo sapiens G6PD, dose series – biochemical, fluorescence, selectivity assay for P. falciparum G6PD inhibitor project, dose response (AID 504792); format: functional
Chain of Glucose-6-phosphate 1-dehydrogenase (P11413 whole entry): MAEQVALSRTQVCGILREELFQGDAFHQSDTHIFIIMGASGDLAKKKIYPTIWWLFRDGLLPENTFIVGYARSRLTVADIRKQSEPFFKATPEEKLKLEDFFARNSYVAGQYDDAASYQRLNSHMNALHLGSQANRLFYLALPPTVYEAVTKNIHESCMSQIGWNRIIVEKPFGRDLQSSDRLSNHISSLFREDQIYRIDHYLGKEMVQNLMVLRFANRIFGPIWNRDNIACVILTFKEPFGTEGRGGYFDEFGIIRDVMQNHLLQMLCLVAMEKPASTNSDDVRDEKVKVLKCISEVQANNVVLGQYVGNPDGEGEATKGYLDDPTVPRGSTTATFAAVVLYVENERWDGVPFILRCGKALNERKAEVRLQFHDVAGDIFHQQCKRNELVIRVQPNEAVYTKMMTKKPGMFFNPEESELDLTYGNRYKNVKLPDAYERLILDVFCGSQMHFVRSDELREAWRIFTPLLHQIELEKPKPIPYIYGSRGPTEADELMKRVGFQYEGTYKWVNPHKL

Chain of Cytochrome P450 2C9 (P11712 whole entry): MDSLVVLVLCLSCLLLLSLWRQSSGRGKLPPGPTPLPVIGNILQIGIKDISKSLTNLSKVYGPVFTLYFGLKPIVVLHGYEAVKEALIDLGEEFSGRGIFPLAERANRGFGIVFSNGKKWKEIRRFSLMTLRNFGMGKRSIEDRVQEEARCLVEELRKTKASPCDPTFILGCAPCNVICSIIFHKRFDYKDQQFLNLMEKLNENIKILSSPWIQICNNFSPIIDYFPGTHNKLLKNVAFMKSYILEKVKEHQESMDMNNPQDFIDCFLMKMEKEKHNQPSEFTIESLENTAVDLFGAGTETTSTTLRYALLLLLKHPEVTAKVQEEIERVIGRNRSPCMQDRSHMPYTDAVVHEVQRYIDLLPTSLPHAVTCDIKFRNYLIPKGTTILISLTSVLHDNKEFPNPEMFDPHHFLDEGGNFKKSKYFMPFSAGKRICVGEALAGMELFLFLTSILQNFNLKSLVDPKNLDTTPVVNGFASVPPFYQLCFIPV

With `CC(C)=CCC1=C(OCC(=O)O)C(=O)c2ccccc2C1=O` the AC50 (Cytochrome P450 2C9) was 3.98 µM (inconclusive), the IC50 (Caspase-3) was 15 µM (active) and the IC50 [1] was 3.91 µM (active).

With `Cc1[nH][nH]c(=O)c1C(c1c(C)[nH][nH]c1=O)c1cn(Cc2ccccc2Cl)c2ccccc12` the EC50 [2] was > 99 µM (inactive), the IC50 [3] was 91 µM (active) and the EC50 [4] was > 99 µM (inactive).

With `Cc1cccc(NC2=C(NC(=O)c3ccccc3)C(=O)c3ccccc3C2=O)c1` the IC50 [5] was > 80 µM (inactive).
